The record followed here is ChEMBL document CHEMBL1159126, “Salicylanilide carbamates: antitubercular agents active against multidrug-resistant Mycobacterium tuberculosis strains” (Bioorg Med Chem, 2010).

The term logP denotes the decadic logarithm of the partition coefficient of the neutral form, usually between octanol and water. A high value points to higher lipophilicity. The term EC50 denotes the concentration giving half of the maximal effect. Lower therefore signals greater potency. The term half-life denotes the time in which the quantity being followed falls by half.

In brackets after ≈: the same amount, converted by molar mass.

For series [1], the system named is Mycobacterium avium. Put plainly: Antimycobacterial activity against Mycobacterium avium 330/88 after 21 days by micromethod. The series is classed as functional. The conditions noted are these: 330/88, 504 h.
Series [2] relates to Mycobacterium kansasii. Put plainly: Antimycobacterial activity against Mycobacterium kansasii 235/80 after 14 days by micromethod. The series is classed as functional. To be noted: 235/80, 336 h.
In series [3] the test system is Mycobacterium kansasii. Put plainly: Antimycobacterial activity against Mycobacterium kansasii 235/80 after 21 days by micromethod. It is filed as functional. The conditions noted are these: 235/80, 504 h.
A short description of series [4]: Partition coefficient, log P of the compound. It is filed as physicochemical. The conditions noted are these: octanol/water.
In series [5] the test system is Mycobacterium kansasii. Put plainly: Antimycobacterial activity against Mycobacterium kansasii 6509/96 after 14 days by micromethod. It is filed as functional. The conditions noted are these: 6509/96, 336 h.
Series [6] relates to Mycobacterium kansasii. Description: Antimycobacterial activity against Mycobacterium kansasii 6509/96 after 21 days by micromethod. It is filed as functional. The conditions noted are these: 6509/96, 504 h.
Series [7] is described as follows: Toxicity against human HCT8 cells after 72 hrs by XTT assay. The series is classed as cell-based, HCT-8. Background: Tetrazolium assays rely on reduction of a dye to a coloured formazan, in cell work by metabolically active cells.
A short description of series [8]: Stability in 100 mM phosphate buffer at pH 3 assessed as compound degradation by HPLC. The series is classed as physicochemical.
Series [9] can be described thus: Stability in 100 mM phosphate buffer at pH 4 assessed as compound degradation by HPLC. The series is classed as physicochemical.
Series [10] is described as follows: Stability in 100 mM phosphate buffer at pH 5 assessed as compound degradation by HPLC. It is filed as physicochemical.
Series [11] in a line: Stability in 100 mM phosphate buffer at pH 6 assessed as compound degradation by HPLC. The series is classed as physicochemical.
Series [12] can be described thus: Stability in 100 mM phosphate buffer at pH 7 assessed as compound degradation by HPLC. It is filed as physicochemical.
The nature of series [13]: Stability in 100 mM phosphate buffer at pH 7.4 assessed as compound degradation by HPLC. The series is classed as physicochemical.
Series [14] in a line: Stability in 100 mM phosphate buffer at pH 8 assessed as compound degradation by HPLC. It is filed as physicochemical.
Series [15] relates to Mycobacterium avium. Description: Antimycobacterial activity against Mycobacterium avium 330/88 after 14 days by micromethod. It is filed as functional. To be noted: 330/88, 336 h.
The test system of series [16] is Mycobacterium tuberculosis. Put plainly: microbe, parasite or virus in culture. The conditions noted are these: 331/88, 336 h.
Description: Antimycobacterial activity against Mycobacterium tuberculosis 331/88 after 14 days by micromethod
Series [17] has as its system Mycobacterium tuberculosis. Put plainly: microbe, parasite or virus in culture. To be noted: 331/88, 504 h.
Description: Antimycobacterial activity against Mycobacterium tuberculosis 331/88 after 21 days by micromethod

With `CCCCCCNC(=O)Oc1ccc(Cl)cc1C(=O)Nc1ccc(Cl)c(Cl)c1`, the MIC is 8 µM (≈ 3.55 µg/mL) in series [1]; 2 µM (≈ 0.888 µg/mL) in series [2]; 2 µM (≈ 0.888 µg/mL) in series [3]; 1 µM (≈ 0.444 µg/mL) in series [5]; 2 µM (≈ 0.888 µg/mL) in series [6]; 4 µM (≈ 1.78 µg/mL) in [15]. The MIC in series [16] and in series [17] was 0.5 µM (≈ 0.222 µg/mL) each time. Further, the logP in [4] was determined as 6.08. For the same compound, the EC50 at 72 h in [7] came out at 27.9 µM. The Stability entry in [8], in [9] and in series [10] was “Stable” throughout. Besides, the half-life in series [11] was 118 h; in series [12], 64 h; in series [13] it was 43 h; in series [14] it was 5 h.

For the compound `CCCCCNC(=O)Oc1ccc(Cl)cc1C(=O)Nc1ccc(Cl)cc1`, the MIC in series [1] worked out at 8 µM (≈ 3.16 µg/mL); in series [2], 2 µM (≈ 0.791 µg/mL); in [3], 4 µM (≈ 1.58 µg/mL); in [5] it was 4 µM (≈ 1.58 µg/mL); in [6], 4 µM (≈ 1.58 µg/mL); in series [15], 8 µM (≈ 3.16 µg/mL). For the same compound, the MIC in series [16] and in series [17] was 0.5 µM (≈ 0.198 µg/mL) in each case. The same compound had a logP in [4] of 5.11. This compound also yielded an EC50 at 72 h in [7] of 17.4 µM.

Take `CCCCCCCNC(=O)Oc1ccc(Cl)cc1C(=O)Nc1ccc(Cl)c(Cl)c1`: the MIC turned out to be 8 µM (≈ 3.66 µg/mL) in series [1]; 2 µM (≈ 0.916 µg/mL) in series [2]; 2 µM (≈ 0.916 µg/mL) in series [3]; 2 µM (≈ 0.916 µg/mL) in [5]; 4 µM (≈ 1.83 µg/mL) in [6]; 4 µM (≈ 1.83 µg/mL) in series [15]. Besides, the MIC in [16] was 0.5 µM (≈ 0.229 µg/mL); in series [17], 1 µM (≈ 0.458 µg/mL). Besides, the logP in series [4] turned out to be 6.5. Moreover, in [7], it took 43.4 µM to reach a half-maximal effect (EC50 at 72 h).

Regarding `CCCCNC(=O)Oc1ccc(Cl)cc1C(=O)Nc1ccc(Cl)c(Cl)c1`, the MIC in series [1] worked out at 16 µM (≈ 6.65 µg/mL); in series [2], 2 µM (≈ 0.831 µg/mL); in [3], 2 µM (≈ 0.831 µg/mL); in [5] it was 2 µM (≈ 0.831 µg/mL); in [6], 4 µM (≈ 1.66 µg/mL); in series [15], 8 µM (≈ 3.33 µg/mL). The MIC was 0.5 µM (≈ 0.208 µg/mL) in [16] and 1 µM (≈ 0.416 µg/mL) in series [17]. Also, in [4], the logP was determined as 5.25. The EC50 at 72 h in series [7] is 38 µM.

With `CCCCCCCCNC(=O)Oc1ccc(Cl)cc1C(=O)Nc1ccc(Cl)c(Cl)c1`, the MIC turned out to be 8 µM (≈ 3.77 µg/mL) in series [1]; 2 µM (≈ 0.944 µg/mL) in series [2]; 4 µM (≈ 1.89 µg/mL) in series [3]; 2 µM (≈ 0.944 µg/mL) in [5]; 4 µM (≈ 1.89 µg/mL) in series [6]; 4 µM (≈ 1.89 µg/mL) in series [15]. Moreover, the MIC amounted to 0.5 µM (≈ 0.236 µg/mL) in series [16] and 1 µM (≈ 0.472 µg/mL) in [17]. In [4], this compound came in with a logP of 6.92. The same compound came in with an EC50 at 72 h in series [7] of 48.5 µM.
